# Measurements as given in patent publication US20240246946A1, “MODULATORS OF TREX1” (Constellation Pharmaceuticals, Inc., priority 2021, published 2024).
# Experiments:
# [1] = target: T1, full length human TREX1 (Homo sapiens, UniProt Q9NSU2); assay: hTREX1 Biochemical Assay (fluorescence, dsDNA substrate degradation); settings: biochemical, read-out: hTREX1 IC50
# T1 construct: N-terminally His-Tev tagged full length human TREX1; made in house; host or cells: E. coli
# T1 sequence (Q9NSU2 1-314): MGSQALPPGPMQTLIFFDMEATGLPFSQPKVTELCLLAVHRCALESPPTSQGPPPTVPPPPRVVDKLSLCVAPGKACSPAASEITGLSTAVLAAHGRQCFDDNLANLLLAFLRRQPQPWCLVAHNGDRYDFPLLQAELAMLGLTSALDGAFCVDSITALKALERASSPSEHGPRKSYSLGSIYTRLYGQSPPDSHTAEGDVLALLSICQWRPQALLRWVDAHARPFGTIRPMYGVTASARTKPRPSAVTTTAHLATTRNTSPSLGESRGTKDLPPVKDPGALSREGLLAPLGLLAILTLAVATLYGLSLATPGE
# How it was run: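 Fluorescence rises as enzyme degrades a quenched TEX615-labelled dsDNA substrate (60 nM) in 50 mM Tris, 150 mM NaCl, 5 mM MgCl2, pH 7.4. Full-length His-Tev-tagged human TREX1, 4 pM, sits with compound 4 hours at 25° C before substrate; reaction 18 hours, stopped with EDTA.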
# [2] = target: T2, full length mouse TREX1 (Mus musculus, UniProt Q91XB0); assay: mTREX1 Biochemical Assay (fluorescence, dsDNA substrate degradation); settings: biochemical, read-out: mTREX1 IC50
# T2 construct: N-terminally His-Tev tagged full length mouse TREX1; made in house; host or cells: E. coli
# T2 sequence (Q91XB0 1-314): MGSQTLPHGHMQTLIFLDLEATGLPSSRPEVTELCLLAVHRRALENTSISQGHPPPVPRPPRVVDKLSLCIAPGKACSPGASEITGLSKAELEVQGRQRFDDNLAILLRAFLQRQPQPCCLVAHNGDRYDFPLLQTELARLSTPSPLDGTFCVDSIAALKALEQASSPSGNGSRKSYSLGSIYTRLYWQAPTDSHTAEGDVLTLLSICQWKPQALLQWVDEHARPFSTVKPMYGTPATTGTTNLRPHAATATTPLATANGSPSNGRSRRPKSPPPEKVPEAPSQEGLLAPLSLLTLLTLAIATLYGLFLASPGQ
# How it was run: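 Reaction run 18 h at 25° C. with 60 nM TEX615/quencher-labelled dsDNA and 6 pM mouse TREX1 in Tris buffer (pH 7.4, 5 mM MgCl2, 1.0% DMSO), enzyme having sat 4 h with compound across 10 concentrations. EDTA quench; substrate degradation measured as fluorescence increase.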
# [3] = target: T3, human TREX2 (residues M44-A279) (Homo sapiens, UniProt Q9BQ50); assay: hTREX2 Biochemical Assay (fluorescence, dsDNA substrate degradation); settings: biochemical selectivity for hTREX1 vs hTREX2
# T3 construct: human TREX2 (residues M44-A279, expressed in E. coli); made in house; host or cells: E. coli
# T3 sequence (Q9BQ50 44-279 isoform Q9BQ50-1): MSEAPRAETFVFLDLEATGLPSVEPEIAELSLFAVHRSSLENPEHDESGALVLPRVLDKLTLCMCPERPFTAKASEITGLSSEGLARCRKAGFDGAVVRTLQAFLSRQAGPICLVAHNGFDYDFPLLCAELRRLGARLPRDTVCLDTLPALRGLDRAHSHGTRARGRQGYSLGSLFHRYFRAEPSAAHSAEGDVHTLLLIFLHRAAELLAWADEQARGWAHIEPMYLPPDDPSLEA
# How it was run: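 Fluorogenic dsDNA degradation read at 615 nm (570 nm excitation) after EDTA quench. Final 60 nM substrate, 50 pM His-Tev-tagged enzyme, 5 mM MgCl2, pH 7.4, 1.0% DMSO; 4 h compound–enzyme preincubation then 18 h reaction, both 25 °C; 10-point titration.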
# [4] = target: T4, hTREX1 (Homo sapiens, UniProt Q9NSU2); assay: hTREX1 HCT116 Cell Assay (HCT116 dual cells, Lucia luciferase reporter of Type I interferon induction); assay type: cell-based; settings: TREX1i 4 h before pBR322/BstNI transfection, read after 48 h
# T4 construct: host or cells: HCT116 dual cells
# T4 sequence (Q9NSU2 1-314): T1 sequence (Q9NSU2 1-314)
# Excerpt: HCT116 dual cells (Invivogen, San Diego, CA, USA) are derived from the human HCT116 colorectal carcinoma cell line. Cells have been selected for the stable integration of SEAP and Luciferase reporter genes, which expression is under the control of 5 tandem response elements for NF-KB/AP1 and STAT1/STAT2, respectively. The cell line was used to monitor Type I interferon induction and subsequent signaling by measuring the activity of the Lucia luciferase secreted in the culture medium.
# HCT116 cells were plated in 96-well plate(s) at 40,000 cells/well in 100 uL DMEM supplemented with 10% FBS and 25 mM Hepes (pH 7.2-7.5). After overnight settling, cells were treated with TREX1i for 4 h (maximum DMSO fraction was 0.1%) before 1 ug/mL pBR322/BstNI restriction digest (New England Biolabs, Ipswich, MA, USA) was transfected with Lipofectamine LTX (ThermoFisher, Grand Island, NY, USA), according to product manual recommendations. Briefly, Lipofectamine LTX (0.35 uL/well) was diluted in OptiMEM (5 uL/well). pBR322/BstNI (100 ng/well) was diluted in OptiMEM (5 uL/well) before Plus reagent (0.1 uL/100 ng DNA) was added. After 5 min incubation at room temperature, the DNA mixture was mixed dropwise with the diluted Lipofectamine LTX. After an additional 10 min incubation, the transfection mix (10 uL/well) was added to the cells. Cells were maintained at 37 C for 48 h before monitoring the Lucia Luciferase activity from the cell culture medium.
IC50 [1],IC50 [2],hTREX1 vs hTREX2 selectivity [3],IC50 [4],Compound
< 1 nM,> 10 nM,C (C = >50 fold selective for hTREX1),10 to 100 nM,"CC(c1nc(C(=O)Nc2cnoc2)c(O)c(=O)n1C)C(c1ccccc1Cl)n1nccc1C(N)=O (single isomer, unassigned) [Example 147 D1E1]"
1 to 10 nM,1 to 10 nM,A (A = <25 fold selective for hTREX1),10 to 100 nM,"Cc1cnn(C(c2ccccc2Cl)C(C)c2nc(C(=O)Nc3cnoc3)c(O)c(=O)n2C)c1 (single isomer, unassigned) [Example 133 D1E2]"
> 10 nM,> 10 nM,A (A = <25 fold selective for hTREX1),> 100 nM,"CC(c1nc(C(=O)Nc2cnoc2)c(O)c(=O)n1C)C(c1cnn(C)c1)c1ccccc1C#N (single isomer, unassigned) [Example 2 D2E2]"
< 1 nM,1 to 10 nM,C (C = >50 fold selective for hTREX1),> 100 nM,"CC(c1nc(C(=O)Nc2cnoc2)c(O)c(=O)n1C)C(c1cnn(C)c1)c1ccc(O)cc1C#N (single isomer, unassigned) [Example 80 D1E1]"
1 to 10 nM,> 10 nM,C (C = >50 fold selective for hTREX1),> 100 nM,"CC(c1nc(C(=O)Nc2cnoc2)c(O)c(=O)n1C)C(c1cn[nH]c1)c1ccccc1C#N (single isomer, unassigned) [Example 12 D2E1]"
1 to 10 nM,> 10 nM,A (A = <25 fold selective for hTREX1),> 100 nM,"COC(C)(C)Cn1cc(C(c2cc(F)ccc2Cl)C(C)c2nc(C(=O)Nc3cnoc3)c(O)c(=O)n2C)cn1 (single isomer, unassigned) [Example 93 D1E2]"
< 1 nM,< 1 nM,C (C = >50 fold selective for hTREX1),< 10 nM,"CC(c1nc(C(=O)Nc2cnoc2)c(O)c(=O)n1C)C(c1cnn(C)c1)c1ccc(Cl)cc1C#N (single isomer, unassigned) [Example 27 D1E1]"
< 1 nM,1 to 10 nM,C (C = >50 fold selective for hTREX1),10 to 100 nM,"CC(c1nc(C(=O)Nc2cnoc2)c(O)c(=O)n1C)C(c1cn[nH]c1)c1ccccc1C#N (single isomer, unassigned) [Example 12 D1E1]"
< 1 nM,1 to 10 nM,C (C = >50 fold selective for hTREX1),< 10 nM,"CC(c1nc(C(=O)Nc2cnoc2)c(O)c(=O)n1C)C(c1ccccc1Cl)c1cnn(C)c1C#N (single isomer, unassigned) [Example 96 D2E2]"
< 1 nM,1 to 10 nM,C (C = >50 fold selective for hTREX1),10 to 100 nM,"Cc1ccn(C(c2ccccc2C#N)C(C)c2nc(C(=O)Nc3cnoc3)c(O)c(=O)n2C)n1 (single isomer, unassigned) [Example 132 D1E2]"
< 1 nM,> 10 nM,C (C = >50 fold selective for hTREX1),10 to 100 nM,"CC(c1nc(C(=O)Nc2cnoc2)c(O)c(=O)n1C)C(c1ccccc1)c1cccnc1C#N (single isomer, unassigned) [Example 155 D2E1]"
1 to 10 nM,> 10 nM,C (C = >50 fold selective for hTREX1),> 100 nM,"Cc1cnc(C(c2cc(F)ccc2C#N)C(C)c2nc(C(=O)Nc3cnoc3)c(O)c(=O)n2C)cn1 (single isomer, unassigned) [Example 115 D2E2]"
< 1 nM,1 to 10 nM,C (C = >50 fold selective for hTREX1),10 to 100 nM,"Cc1nn(C)cc1C(c1cc(F)ccc1C#N)C(c1nc(C(=O)Nc2cnoc2)c(O)c(=O)n1C)C(F)(F)F (single isomer, unassigned) [Example 42 D1E2]"
> 10 nM,> 10 nM,C (C = >50 fold selective for hTREX1),> 100 nM,"Cc1cnc(C)c(C(c2ccccc2Cl)C(C)c2nc(C(=O)Nc3cnoc3)c(O)c(=O)n2C)n1 (single isomer, unassigned) [Example 120 D2E2]"
< 1 nM,1 to 10 nM,,> 100 nM,"CC(c1nc(C(=O)Nc2cnoc2)c(O)c(=O)n1C)C(c1cnn(CCN2CCNCC2)c1)c1ccccc1C#N (single isomer, unassigned) [Example 31 D1E1]"

Compound,IC50 [1],IC50 [2],hTREX1 vs hTREX2 selectivity [3],IC50 [4]
"Cc1cnc(C)c(C(c2cc(F)ccc2Cl)C(C)c2nc(C(=O)Nc3cnoc3)c(O)c(=O)n2C)n1 (single isomer, unassigned) [Example 121 D2E1]",> 10 nM,> 10 nM,B (B = 25 to 50-fold selective for hTREX1),> 100 nM
"CC(c1nc(C(=O)Nc2cnoc2)c(O)c(=O)n1C)C(c1ccccc1Cl)c1cn(C)nc1F (single isomer, unassigned) [Example 130 D1E1]",< 1 nM,< 1 nM,B (B = 25 to 50-fold selective for hTREX1),< 10 nM
"CC(c1nc(C(=O)Nc2cnoc2)c(O)c(=O)n1C)C(c1cnn(C)c1)c1ccc(C(=O)N(C)C)cc1C#N (single isomer, unassigned) [Example 11 D1E1]",< 1 nM,< 1 nM,B (B = 25 to 50-fold selective for hTREX1),> 100 nM
"CC(c1nc(C(=O)Nc2cnoc2)c(O)c(=O)n1C)C(c1cnn(CCOC(F)(F)F)c1)c1cc(F)ccc1Cl (single isomer, unassigned) [Example 98 D1E1]",1 to 10 nM,1 to 10 nM,B (B = 25 to 50-fold selective for hTREX1),> 100 nM
"Cc1ncc(C(c2ccccc2Cl)C(C)c2nc(C(=O)Nc3cnoc3)c(O)c(=O)n2C)cn1 (single isomer, unassigned) [Example 44 D1E2]",1 to 10 nM,1 to 10 nM,B (B = 25 to 50-fold selective for hTREX1),10 to 100 nM
"CC(c1nc(C(=O)Nc2cnoc2)c(O)c(=O)n1C)C(c1cnn(CC2COC2)c1)c1cc(F)ccc1Cl (single isomer, unassigned) [Example 94 D1E1]",1 to 10 nM,1 to 10 nM,B (B = 25 to 50-fold selective for hTREX1),> 100 nM
"Cc1nn(C)c(C)c1C(c1cc(F)ccc1C#N)C(C)c1nc(C(=O)Nc2cnoc2)c(O)c(=O)n1C (single isomer, unassigned) [Example 109 D1E1]",< 1 nM,1 to 10 nM,B (B = 25 to 50-fold selective for hTREX1),10 to 100 nM
